Data published in paper PMC4517612 (MedChemComm, 2015).
Several values for one entry are separate records, joined by “and”; a condition that tells them apart may be missing. Equal entries are not always repeated. Where two headings read alike, the source gives them in different places.

What was measured:
[1] = system: CCI model of neuropathic pain (mechanoallodynia) in mice; details: 3 μmol/kg p.o., ref Tosh et al.[8], cited from earlier work
[2] = system: CCI model of neuropathic pain (mechanoallodynia) in mice; assay: Mouse CCI model of neuropathic pain; format: in vivo; details: 3 μmol/kg p.o.; for reversal of mechanoallodynia at 1 h (in words): 1 h after drug treatment; for reversal of mechanoallodynia at 1 h (in words) / duration of action in vivo (in words): CCI mice
hA3AR = molecular target: T1, hA3AR (Homo sapiens, UniProt P0DMS8); assay: Radioligand binding at hA3AR
T1 sequence (P0DMS8 1-318): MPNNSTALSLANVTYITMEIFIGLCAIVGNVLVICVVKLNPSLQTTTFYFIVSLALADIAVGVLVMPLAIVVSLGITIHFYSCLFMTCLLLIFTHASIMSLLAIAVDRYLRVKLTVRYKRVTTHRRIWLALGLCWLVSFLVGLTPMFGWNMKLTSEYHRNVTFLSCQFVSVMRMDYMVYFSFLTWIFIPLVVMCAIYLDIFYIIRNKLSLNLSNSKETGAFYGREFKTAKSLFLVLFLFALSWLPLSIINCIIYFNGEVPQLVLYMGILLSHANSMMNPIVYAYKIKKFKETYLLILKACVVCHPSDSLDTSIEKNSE

SMILES | reversal of mechanoallodynia at 1 h (in words) [2] | duration of action in vivo (in words) [2] | also measured
CNC(=O)[C@@]12C[C@@H]1[C@@H](n1cnc3c(NCc4cccc(Cl)c4)nc(C#Cc4ccc(F)c(F)c4)nc31)[C@H](O)[C@@H]2O [Compound 1] |  |  | Effect at 3h (% ± SEM), pain protection [1]: 24% and 23.7 ± 10.8%; Max. effect Emax (% ± SEM), reversal of reduction in PWT of ipsilateral hind paw [1]: 100 ± 0.0%
CNC(=O)[C@@]12C[C@@H]1[C@@H](n1cnc3c(NC)nc(C#Cc4ccc(Cl)s4)nc31)[C@H](O)[C@@H]2O [Compound 2] |  |  | Effect at 3h (% ± SEM), pain protection [1]: 83% and 82.8 ± 11.2%; Max. effect Emax (% ± SEM), reversal of reduction in PWT of ipsilateral hind paw [1]: 93.3 ± 6.7%
CNC(=O)[C@@]12C[C@@H]1[C@@H](n1cnc3c(NC)nc(-n4cc(-c5cnn(C)c5)nn4)nc31)[C@H](O)[C@@H]2O [Compound 11] | nearly completely reversed |  | 
CCNc1nc(-n2cc(-c3ccc(Cl)s3)nn2)nc2c1ncn2[C@H]1[C@H](O)[C@H](O)[C@]2(C(=O)NC)C[C@H]12 [Compound 15] | nearly completely reversed |  | 
CNC(=O)[C@@]12C[C@@H]1[C@@H](n1cnc3c(NC4CCC4)nc(-n4cc(-c5ccc(Cl)s5)nn4)nc31)[C@H](O)[C@@H]2O [Compound 16] |  | prolonged in activity | 
CNC(=O)[C@@]12C[C@@H]1[C@@H](n1cnc3c(NC)nc(-n4cc(-c5ccc(Br)s5)nn4)nc31)[C@H](O)[C@@H]2O [Compound 19] | nearly completely reversed |  | 
CNC(=O)[C@@]12C[C@@H]1[C@@H](n1cnc3c(NC)nc(-n4cc(-c5ncccn5)nn4)nc31)[C@H](O)[C@@H]2O [Compound 9] | nearly completely reversed |  | ligand efficiency with respect to A3AR affinity (hA3AR): 0.27
CNC(=O)[C@@]12C[C@@H]1[C@@H](n1cnc3c(NCc4cccc(Cl)c4)nc(-n4cc(-c5ccc(Cl)s5)nn4)nc31)[C@H](O)[C@@H]2O [Compound 17] |  | nearly full protection up to 4 h | Effect at 3h (% ± SEM), pain protection ([2]; day 7 after CCI, mice, 3 h after administration): > 90%
CNC(=O)[C@@]12C[C@@H]1[C@@H](n1cnc3c(NCCc4ccccc4)nc(-n4cc(-c5ccc(Cl)s5)nn4)nc31)[C@H](O)[C@@H]2O [Compound 18] |  | prolonged in activity | 
